Experimental data: patent US20240358678A1, “METHODS AND COMPOSITIONS FOR ENHANCING CHEMOTHERAPEUTIC DRUG UPTAKE INTO BRAIN TUMORS” (Brown University, priority 2023, published 2024)

Experiments:
HBMEC cells = experiment: Trans-endothelial electrical resistance (TEER) of HBMEC monolayers; assay type: cell-based, human
Protocol: Trans-endothelial electrical resistance: HCMEC/D3 or HBMEC cells were plated in 8W10E+ PET 8-well arrays (Applied Biophysics) at a density of 100,000 cells/well in 500 μl. These arrays were placed in a pre-stabilized ECIS Z-Theta instrument (Applied Biophysics). Using the ECIS Z-Theta software (Applied Biophysics), measurements were set to 4000 and 64000 Hz every 30 minutes. […] Cells would then be treated with BIA and left to grow up to 5 days, with frequent drug-containing media re-addition for maintenance of the culture. Resistance (W) and capacitance (nF) were recorded and plotted.

HCMEC/D3 cells = experiment: Visual assessment (brightfield) of HCMEC/D3 cells; assay type: cell-based, human; settings: BIA 72 hours; elongated phenotype with long filipodia
[1] = test system: G9-PCDH, G34-PCDH and GL-261 GBM tumors; experiment: ICP-MS platinum quantification in GBM tumor-bearing mice after BIA and cisplatin; assay type: in vivo; settings: G9-PCDH xenograft, increasing BIA doses
Protocol: (§1) In vivo studies: For intra-cranial tumor implantation, GBM neuro-spheres were grown to 70% confluency before dissociated into single cell on the day of surgery. 50,000 cells were resuspended in 3 μl of sterile PBS and injected intracranially into the striatum (2 mm right hemisphere, 1 mm frontal, 3 mm depth from bregma) of mice under anesthesia and stereo-tactically fixed. Tumors were left to grow for approximately 2-3 weeks, depending the cell line. Animals were randomized to treatment groups. BIA injections consisted of 20 mg/kg (i.p.), except if indicated otherwise. PPRX-1701 was administered at 20 mg/kg (i.v.) via lateral tail-vein. Cisplatin injections were performed at 5 mg/kg (maximum tolerated dose, i.p.). All GBM tumor murine studies involved continuous condition and weight assessments, with endpoint considered when 20% of weight loss and/or moderate-to-high grimace scale and neurological symptoms were observed.
(§2) ICP-MS for platinum quantification: Mice treated with cisplatin after BIA administration were euthanized, intra-cardially perfused with PBS and tissue harvested to be stored at −80 degrees Celsius. Tissue was processed and platinum (Pt195) was quantified using an Agilent 7900 ICP-MS, as previously described.^42

[2] = test system: G9-PCDH, G34-PCDH and GL-261 murine GBM tumors; experiment: as above; assay type: in vivo
Protocol: as §1, §2

[3] = test system: G9-PCDH and G34-PCDH cells; experiment: Platinum levels in GBM cells treated with BIA and cisplatin; assay type: cell-based, human; settings: 2 μM BIA and cisplatin simultaneously

CC(=O)ON=C1C(=C2C(=O)Nc3cc(Br)ccc32)Nc2ccccc21 [BIA, 6-bromoindirubin acetoxime]
barrier establishment (TEER), BIA added 24 hours after plating (HBMEC cells): prevented barrier establishment
signs of apoptosis or necrosis by visual assessment (HCMEC/D3 cells): did not show signs of apoptosis or necrosis
BIA dose showing significant cisplatin accumulation in the tumor [1]: above 10 mg/kg
platinum uptake in contralateral healthy brain regions ([2]; cisplatin 5 mg/kg 24 hours after BIA): no significant difference of uptake
cisplatin (platinum) accumulation in tumor after BIA pre-treatment ([2]; cisplatin 5 mg/kg 24 hours after BIA, 5 hours circulation): significant cisplatin intra-tumoral accumulation
platinum accumulation in peripheral tissues such as heart or liver ([2]; cisplatin 24 hours after BIA): no difference in platinum accumulation
cellular drug (platinum) accumulation due to BIA addition [3]: did not observe any advantage in drug accumulation
